Results on two compounds are retold here after patent US20240197726A1, “NOVEL TETRAHYDROISOQUINOLINE ALKALOID COMPOUND CONTAINING MACROCYCLE” (THE UNIVERSITY OF TOKYO, priority 2021, published 2024).

Read-outs that look alike come from different tables or passages of the source.

Test [1] concerns MCF-7 breast cancer cells. The following applies: MCF-7, reference values from literature (Leal et al. Br. J Pharmacol, 2010), read-out: GI50 value: 50% growth inhibitory concentration, cited from earlier work.
Test [2] relates to MDA-MB-231 breast cancer cells. Particulars: MDA-MB-231; reference values from literature (Leal et al. Br. J Pharmacol, 2010); read-out: GI50 value: 50% growth inhibitory concentration; cited from earlier work.
In test [3] the test system is HT-29 colorectal cancer cells. The following applies: HT-29; reference values from literature (Leal et al. Br. J Pharmacol, 2010); read-out: GI50 value: 50% growth inhibitory concentration; cited from earlier work.
For test [4], the system named is HCT-116 colorectal cancer cells. The following applies: HCT-116; reference values from literature (Leal et al. Br. J Pharmacol, 2010); read-out: GI50 value: 50% growth inhibitory concentration; cited from earlier work.
Test [5] has as its system NCI-H23 lung cancer cells. The following applies: NCI-H23; reference values from literature (Leal et al. Br. J Pharmacol, 2010); read-out: GI50 value: 50% growth inhibitory concentration; cited from earlier work.
Test [6] relates to NCI-H460 lung cancer cells. Particulars: NCI-H460; reference values from literature (Leal et al. Br. J Pharmacol, 2010); read-out: GI50 value: 50% growth inhibitory concentration; cited from earlier work.
Test [7] has as its system A549 lung cancer cells. Particulars: A549; reference values from literature (Leal et al. Br. J Pharmacol, 2010); read-out: GI50 value: 50% growth inhibitory concentration; cited from earlier work.
The subject of test [8] is HBC-4 breast cancer cells. Nature of the test: antitumor activity, sulforhodamine B cell growth assay, HBC-4. The format is cell-based. The following applies: HBC-4 breast cancer cells; read-out: antitumor activity GI50 value: 50% growth inhibitory concentration. As for the experimental part: (§1) The THIQ compound containing a macrocyclic structure of the present invention was administered to various cancer cell lines, and the antitumor activity (Go value) was observed. Specifically, verification was performed according to the literature (Yamori, T.; Matsunaga, A.; Sato, S.; Yamazaki, K.; Komi, A.; Ishizu, K. et al. Cancer Res. 1999, 59, 4042) by the following procedure.
(§2) Cells were plated at an appropriate density in a 96-well plate in RPMI 1640 together with 5% fetal bovine serum, and adhered overnight. The cells were exposed to a drug for 48 hours. Then, according to the sulforhodamine B assay described by Skehan et al (Skehan P., Storeng R., Scudiero D., Monks A., McMahon J., Vistica D., Warren J. T., Bokesch H., Kenney S., Boyd M. R. J Natl. Cancer Inst, 1990, 82, 1107-1112), the cell growth rate was measured. The absorbance of the control well (C) and the test well (T) was measured at 525 nm. In addition, the time at which the drug was added was set as time 0, and the absorbance for the test well (T0) was measured. Using these measured values, the cell growth inhibitory effect (% growth=PG) was calculated by the following formula at each concentration of the drug.
(§3) (T<T0): PG=100×[(T−T0)/T]
(§4) The PG values determined above for each cell line were plotted against the concentration (logarithm) on a semi-logarithmic graph, and summarized for each visceral cancer. Concentrations at which the dose-response curve of each cell line crossed the horizontal line of PG=50%, 0%, or −50% were calculated. These concentrations were defined as Log GI50, Log TGI, and Log LC50. Actually, using two data points of the drug concentration before and after crossing each horizontal line, the drug concentration (logarithmic value) at the intersection of the straight line connecting the two points and the horizontal line for each PG was calculated.

The subject of test [9] is BSY-1 breast cancer cells. Nature of the test: antitumor activity, sulforhodamine B cell growth assay, BSY-1. The format is cell-based. The following applies: BSY-1 breast cancer cells; read-out: antitumor activity GI50 value: 50% growth inhibitory concentration. The method, then: as §1, §2, §3, §4
Test [10] has as its system HBC-5 breast cancer cells. Nature of the test: antitumor activity, sulforhodamine B cell growth assay, HBC-5. The following applies: HBC-5 breast cancer cells; read-out: antitumor activity GI50 value: 50% growth inhibitory concentration. Type of test: cell-based. As for the experimental part:
as §1, §2, §3, §4

Test [11] deals with MDA-MB-231 breast cancer cells. Nature of the test: antitumor activity, sulforhodamine B cell growth assay, MDA-MB-231. Particulars: MDA-MB-231 breast cancer cells; read-out: antitumor activity GI50 value: 50% growth inhibitory concentration. Type of test: cell-based. The method, then: as §1, §2, §3, §4
The subject of test [12] is U251 central nervous system cancer cells. Nature of the test: antitumor activity, sulforhodamine B cell growth assay, U251. The format is cell-based. Particulars: U251 central nervous system cancer cells; read-out: antitumor activity GI50 value: 50% growth inhibitory concentration. The method, then:
as §1, §2, §3, §4

Test [13] deals with SF-295 central nervous system cancer cells. Nature of the test: antitumor activity, sulforhodamine B cell growth assay, SF-295. The format is cell-based. The following applies: SF-295 central nervous system cancer cells; read-out: antitumor activity GI50 value: 50% growth inhibitory concentration. The method, then:
as §1, §2, §3, §4

For test [14], the system named is SF-539 central nervous system cancer cells. Nature of the test: antitumor activity, sulforhodamine B cell growth assay, SF-539. The format is cell-based. The following applies: SF-539 central nervous system cancer cells; read-out: antitumor activity GI50 value: 50% growth inhibitory concentration. As for the experimental part: as §1, §2, §3, §4
The test system of test [15] is SNB-75 central nervous system cancer cells. Nature of the test: antitumor activity, sulforhodamine B cell growth assay, SNB-75. Type of test: cell-based. The following applies: SNB-75 central nervous system cancer cells; read-out: antitumor activity GI50 value: 50% growth inhibitory concentration. As for the experimental part: as §1, §2, §3, §4
In test [16] the test system is SNB-78 central nervous system cancer cells. Nature of the test: antitumor activity, sulforhodamine B cell growth assay, SNB-78. The format is cell-based. The following applies: SNB-78 central nervous system cancer cells; read-out: antitumor activity GI50 value: 50% growth inhibitory concentration. As for the experimental part:
as §1, §2, §3, §4

Test [17] relates to HCC2998 colorectal cancer cells. Nature of the test: antitumor activity, sulforhodamine B cell growth assay, HCC2998. The following applies: HCC2998 colorectal cancer cells; read-out: antitumor activity GI50 value: 50% growth inhibitory concentration. The format is cell-based. The method, then: as §1, §2, §3, §4
In test [18] the test system is KM-12 colorectal cancer cells. Nature of the test: antitumor activity, sulforhodamine B cell growth assay, KM-12. The format is cell-based. The following applies: KM-12 colorectal cancer cells; read-out: antitumor activity GI50 value: 50% growth inhibitory concentration. As for the experimental part:
as §1, §2, §3, §4

Test [19] has as its system HT-29 colorectal cancer cells. Nature of the test: antitumor activity, sulforhodamine B cell growth assay, HT-29. The format is cell-based. Particulars: HT-29 colorectal cancer cells; read-out: antitumor activity GI50 value: 50% growth inhibitory concentration. The method, then: as §1, §2, §3, §4
Test [20] concerns HCT-15 colorectal cancer cells. Nature of the test: antitumor activity, sulforhodamine B cell growth assay, HCT-15. Type of test: cell-based. The following applies: HCT-15 colorectal cancer cells; read-out: antitumor activity GI50 value: 50% growth inhibitory concentration. The method, then:
as §1, §2, §3, §4

Test [21] concerns HCT-116 colorectal cancer cells. Nature of the test: antitumor activity, sulforhodamine B cell growth assay, HCT-116. The format is cell-based. The following applies: HCT-116 colorectal cancer cells; read-out: antitumor activity GI50 value: 50% growth inhibitory concentration. As for the experimental part: as §1, §2, §3, §4
In test [22] the test system is NCI-H226 lung cancer cells. Nature of the test: antitumor activity, sulforhodamine B cell growth assay, NCI-H226. The format is cell-based. The following applies: NCl-H226 lung cancer cells; read-out: antitumor activity GI50 value: 50% growth inhibitory concentration. As for the experimental part:
as §1, §2, §3, §4

Test [23] deals with NCI-H522 lung cancer cells. Nature of the test: antitumor activity, sulforhodamine B cell growth assay, NCI-H522. Type of test: cell-based. Particulars: NCl-H522 lung cancer cells; read-out: antitumor activity GI50 value: 50% growth inhibitory concentration. The method, then:
as §1, §2, §3, §4

Test [24] concerns NCI-H460 lung cancer cells. Nature of the test: antitumor activity, sulforhodamine B cell growth assay, NCI-H460. Type of test: cell-based. The following applies: NCl--H460 lung cancer cells; read-out: antitumor activity GI50 value: 50% growth inhibitory concentration. The method, then:
as §1, §2, §3, §4

The subject of test [25] is A549 lung cancer cells. Nature of the test: antitumor activity, sulforhodamine B cell growth assay, A549. Type of test: cell-based. Particulars: A549 lung cancer cells; read-out: antitumor activity GI50 value: 50% growth inhibitory concentration. As for the experimental part: as §1, §2, §3, §4
In another test the test system is DMS273 lung cancer cells. Nature of the test: antitumor activity, sulforhodamine B cell growth assay, DMS273. The following applies: DMS273 lung cancer cells; read-out: antitumor activity GI50 value: 50% growth inhibitory concentration. The format is cell-based. As for the experimental part:
as §1, §2, §3, §4

The subject of another test is DMS114 lung cancer cells. Nature of the test: antitumor activity, sulforhodamine B cell growth assay, DMS114. The format is cell-based. The following applies: DMS114 lung cancer cells; read-out: antitumor activity GI50 value: 50% growth inhibitory concentration. As for the experimental part:
as §1, §2, §3, §4

The subject of the next test is LOX-IMVI melanoma cells. Nature of the test: antitumor activity, sulforhodamine B cell growth assay, LOX-IMVI. Type of test: cell-based. Particulars: LOX-IMVI melanoma cells; read-out: antitumor activity GI50 value: 50% growth inhibitory concentration. As for the experimental part: as §1, §2, §3, §4
In the next test the test system is SK-OV-3 cancer cells. Nature of the test: antitumor activity, sulforhodamine B cell growth assay, SK-OV-3. The format is cell-based. The following applies: SK-OV-3 cervical cancer cells; read-out: antitumor activity GI50 value: 50% growth inhibitory concentration. As for the experimental part: as §1, §2, §3, §4
The next test deals with ACHN kidney cancer cells. Nature of the test: antitumor activity, sulforhodamine B cell growth assay, ACHN. Type of test: cell-based. The following applies: ACHN kidney cancer cells; read-out: antitumor activity GI50 value: 50% growth inhibitory concentration. The method, then: as §1, §2, §3, §4
Test [26] has as its system St-4 gastric cancer cells. Nature of the test: antitumor activity, sulforhodamine B cell growth assay, St-4. The format is cell-based. The following applies: SI-4 gastric cancer cells; read-out: antitumor activity GI50 value: 50% growth inhibitory concentration. As for the experimental part:
as §1, §2, §3, §4

In test [27] the test system is MKN1 gastric cancer cells. Nature of the test: antitumor activity, sulforhodamine B cell growth assay, MKN1. The format is cell-based. Particulars: MKN1 gastric cancer cells; read-out: antitumor activity GI50 value: 50% growth inhibitory concentration. The method, then:
as §1, §2, §3, §4

Test [28] has as its system MKN-B gastric cancer cells. Nature of the test: antitumor activity, sulforhodamine B cell growth assay, MKN-B. The format is cell-based. Particulars: MKN-B gastric cancer cells; read-out: antitumor activity GI50 value: 50% growth inhibitory concentration. The method, then:
as §1, §2, §3, §4

For test [29], the system named is MKN-A gastric cancer cells. Nature of the test: antitumor activity, sulforhodamine B cell growth assay, MKN-A. The following applies: MKN-A gastric cancer cells; read-out: antitumor activity GI50 value: 50% growth inhibitory concentration. Type of test: cell-based. The method, then: as §1, §2, §3, §4
Test [30] relates to MKN45 gastric cancer cells. Nature of the test: antitumor activity, sulforhodamine B cell growth assay, MKN45. The format is cell-based. Particulars: MKN45 gastric cancer cells; read-out: antitumor activity GI50 value: 50% growth inhibitory concentration. The method, then:
as §1, §2, §3, §4

In test [31] the test system is DU-145 prostate cancer cells. Nature of the test: antitumor activity, sulforhodamine B cell growth assay, DU-145. Type of test: cell-based. The following applies: DU-145 prostate cancer cells; read-out: antitumor activity GI50 value: 50% growth inhibitory concentration. The method, then:
as §1, §2, §3, §4

Turning to `COc1cc2c(cc1O)CCNC21CS[C@@H]2c3c(OC(C)=O)c(C)c4c(c3C(COC1=O)N1[C@@H]2[C@H]2c3c(cc(C)c(OC)c3O)C[C@@H]([C@@H]1O)N2C)OCO4` (stereo partly shown) [Ecteinascidin 743, reference compound], the GI50 in test [1] (listed as drawing 118) was 2.6 nM; in test [1] (listed as drawing 142), 2.8 nM; in test [2] it was 3.9 nM; in test [3], 9.8 nM; in test [4], 4.9 nM; in test [5], 2.1 nM. The GI50 in test [6] was 1.8 nM; in the test with A549 lung cancer cells [7] it was 10.4 nM.
In the case of `CC1=C(C)C(=O)C2=C(CC3(C)[C@H]4c5c(cc(C)c(C)c5C)C[C@@](C)(C(C)N3[C@H]2CNC(=O)C(C)C)N4C)C1=O` (stereo partly shown) [drawing 164], the GI50 in [8] stood at 59 nM; in test [9] it was 34 nM; in [10] it was 62 nM; in test [11], 130 nM; in [12], 370 nM; in test [13], 500 nM. Further, the GI50 in [14] was 180 nM; in [15], 150 nM; in test [16] it was 63 nM; in [17], 350 nM; in test [18], 530 nM; in [19], 190 nM. The GI50 in [20] is 390 nM; in test [21], 290 nM; in test [22], 310 nM; in test [23], 43 nM; in test [24], 400 nM; in the test on A549 lung cancer cells [25], 1600 nM. In addition, the GI50 with DMS273 lung cancer cells came to 270 nM; in the test with DMS114 lung cancer cells, 35 nM; in the test on LOX-IMVI melanoma cells it was 61 nM; with SK-OV-3 cancer cells, 540 nM; with ACHN kidney cancer cells, 320 nM; in test [26], 430 nM. For the same compound, the GI50 in [27] was 52 nM; in [28], 170 nM; in test [29], 250 nM; in test [30], 300 nM; in [31], 490 nM.
